The first experiment has as its target Cdc7/Dbf4 (Homo sapiens, UniProt O00311). Nature of the experiment: Cdc7 Biochemical Assay Method 3: Cdc7/Dbf4 Enzyme TR-FRET Assay measuring pS40MCM2. As to conditions: 1 μM ATP, read-out: Biochemical Method 3 (pIC50) (converted). As to the method: This protocol describes a method for assaying a compounds' ability to inhibit Cdc7 activity by measuring pS40MCM2 levels in a Cdc7/Dbf4 Enzyme TR-FRET Assay.
2.5 nM Cdc7/Dbf4 was incubated with 100 nM of biotin-labelled peptide 35-TDALTS(pS)PGRDLP in the presence of 1 μM ATP at 25° C. for 120 minutes. The phosphorylation of the peptide was detected using TR-FRET. Anti-Mcm2 (pS40) antibody, Terbium anti-rabbit secondary antibody and Streptavidin-Alexa Fluor488 form the detection system.
For orientation: TR-FRET usually uses a lanthanide donor and a delayed reading to cut background.
Sequence of Cdc7/Dbf4 (O00311 whole entry): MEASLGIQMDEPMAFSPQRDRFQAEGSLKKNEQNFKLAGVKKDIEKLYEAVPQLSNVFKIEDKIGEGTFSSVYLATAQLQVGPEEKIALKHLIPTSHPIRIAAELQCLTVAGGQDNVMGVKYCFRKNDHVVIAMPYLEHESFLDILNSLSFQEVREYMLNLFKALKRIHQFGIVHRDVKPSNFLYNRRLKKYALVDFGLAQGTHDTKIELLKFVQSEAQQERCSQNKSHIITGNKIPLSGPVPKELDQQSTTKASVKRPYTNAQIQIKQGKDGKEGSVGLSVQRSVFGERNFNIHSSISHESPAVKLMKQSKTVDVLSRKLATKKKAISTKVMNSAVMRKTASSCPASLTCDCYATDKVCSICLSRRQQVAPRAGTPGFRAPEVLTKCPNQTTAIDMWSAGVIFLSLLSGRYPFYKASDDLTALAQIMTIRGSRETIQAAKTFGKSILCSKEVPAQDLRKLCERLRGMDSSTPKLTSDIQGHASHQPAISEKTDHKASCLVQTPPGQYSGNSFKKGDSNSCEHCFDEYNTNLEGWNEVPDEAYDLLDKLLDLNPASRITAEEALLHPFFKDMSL
Sequence of Cdc7/Dbf4 (Q9UBU7 whole entry partner): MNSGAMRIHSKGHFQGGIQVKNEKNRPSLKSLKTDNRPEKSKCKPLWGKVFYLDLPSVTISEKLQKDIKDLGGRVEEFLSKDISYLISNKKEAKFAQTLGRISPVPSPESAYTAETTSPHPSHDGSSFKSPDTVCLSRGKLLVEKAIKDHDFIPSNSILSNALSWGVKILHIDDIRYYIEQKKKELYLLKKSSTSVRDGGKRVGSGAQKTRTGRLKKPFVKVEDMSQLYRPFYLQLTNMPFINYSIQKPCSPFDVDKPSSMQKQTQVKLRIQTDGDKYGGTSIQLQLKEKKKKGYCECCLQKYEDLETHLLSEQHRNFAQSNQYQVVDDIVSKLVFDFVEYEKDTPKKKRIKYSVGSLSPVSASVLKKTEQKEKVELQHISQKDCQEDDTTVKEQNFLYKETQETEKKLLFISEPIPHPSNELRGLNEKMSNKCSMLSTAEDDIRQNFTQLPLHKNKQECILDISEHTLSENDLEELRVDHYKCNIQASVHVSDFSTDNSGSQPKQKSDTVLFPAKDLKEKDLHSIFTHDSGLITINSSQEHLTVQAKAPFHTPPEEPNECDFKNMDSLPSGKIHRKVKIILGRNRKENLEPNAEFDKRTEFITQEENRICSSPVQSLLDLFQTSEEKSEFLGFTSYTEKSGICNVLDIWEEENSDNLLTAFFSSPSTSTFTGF
Sequence of Cdc7/ASK (O00311 whole entry): as the sequence (O00311 whole entry) above
Sequence of Cdc7/ASK (Q9UBU7 whole entry partner): as the sequence (Q9UBU7 whole entry partner) above
As to `O=c1[nH]c(-c2ccnc(F)c2)nc(C2CCOCC2)c1Cl` [Compound 13, 5-chloro-2-(2-fluoro-pyridin-4-yl)-6-(tetrahydro-pyran-4-yl)-3H-pyrimidin-4-one], the IC50 was 0.759 nM.

As for `Nc1ccc(Oc2nc(-c3ccnc(F)c3)[nH]c(=O)c2Cl)cc1` [Compound 287], the IC50 was 19.1 nM.

Consider `O=c1[nH]c(-c2ccnc(F)c2)nc(N2CCC3(CCCN3)C2)c1Cl` (centres unmarked) [Compound 217], for which the IC50 is 45.7 nM.

Turning to `O=c1[nH]c(-c2ccnc(F)c2)nc(N2CCC(CN3CCOCC3)C2)c1Cl` (centres unmarked) [Compound 212], the IC50 was 79.4 nM.

`CC(C)c1nnc2n1CCN(c1nc(-c3ccnc(F)c3)[nH]c(=O)c1Cl)C2` [Compound 270]: the IC50 was 20.9 nM.

On to `NC(=O)[C@@H]1CCCN1c1nc(-c2ccnc(F)c2)[nH]c(=O)c1Cl` [Compound 248], for which the IC50 was 42.7 nM.

For `O=c1[nH]c(-c2ccnc(F)c2)nc(N2CCOC3CNCC32)c1Cl` (centres unmarked) [Compound 216], the IC50 is 1.7 nM.

Regarding `O=c1[nH]c(-c2ccnc(F)c2)nc(N2CCC3(CCNC3)C2)c1Cl` (centres unmarked) [Compound 218], the IC50 was 8.13 nM.

Turning to `CNC(=O)C1CCN(c2nc(-c3ccnc(F)c3)[nH]c(=O)c2Cl)CC1` [Compound 231], the IC50 was 2.88 nM.

`O=c1[nH]c(-c2ccnc(F)c2)nc(N2CCC(C3CCOCC3)C2)c1Cl` (centres unmarked) [Compound 228]: the IC50 is 53.7 nM.

`O=c1[nH]c(-c2ccnc(F)c2)nc(N2CCC3(CCCN3)CC2)c1Cl` [Compound 241]: the IC50 was 2.19 nM.

Regarding `CO[C@H]1CCCN(c2nc(-c3ccnc(F)c3)[nH]c(=O)c2Cl)C1` [Compound 283], the IC50 is 5.37 nM.

Take `O=c1[nH]c(-c2ccnc(F)c2)nc(NCc2ccccc2)c1Cl` [Compound 290]: the IC50 was 355 nM.

Turning to `CNC(=O)C1CCCN(c2nc(-c3ccnc(F)c3)[nH]c(=O)c2Cl)C1` (centres unmarked) [Compound 253], the IC50 was 7.41 nM.

As to `O=c1[nH]c(-c2ccnc(F)c2)nc(N2CC[C@@H](O)C2)c1Cl` [Compound 214], the IC50 was 14.8 nM.

On to `C[C@@H]1COC[C@H](C)N1c1nc(-c2ccnc(F)c2)[nH]c(=O)c1Cl` [Compound 343], for which the IC50 is 6.76 nM.

Turning to `O=c1[nH]c(-c2ccnc(F)c2)nc(N2CCOC(COc3ccccc3)C2)c1Cl` (centres unmarked) [Compound 285], the IC50 is 9.12 nM.

As to `CC1c2nnc(C(F)(F)F)n2C(C)CN1c1nc(-c2ccnc(F)c2)[nH]c(=O)c1Cl` (centres unmarked) [Compound 356], the IC50 was 10 nM.

Consider `O=c1[nH]c(-c2ccnc(F)c2)nc(N2CCn3ccnc3C2)c1Cl` [Compound 353], for which the IC50 was 1.62 nM.

Regarding `O=c1[nH]c(-c2ccnc(F)c2)nc(OC2CCNCC2)c1Cl` [Compound 329], the IC50 was 0.617 nM.

Take `O=c1[nH]c(-c2ccnc(F)c2)nc(N2C[C@H]3NCCO[C@@H]3C2)c1Cl` [Compound 237]: the IC50 was 7.94 nM.

For the compound `N[C@@H]1CCN(c2nc(-c3ccnc(F)c3)[nH]c(=O)c2Cl)C1` [Compound 324], the IC50 is 14.5 nM.

On to `O=c1[nH]c(-c2ccnc(F)c2)nc(N2CCC3(CNC3)C2)c1Cl` [Compound 245], for which the IC50 was 2.04 nM.

Turning to `O=c1[nH]c(-c2ccnc(F)c2)nc(N2CCCC3NCCCC32)c1Cl` (centres unmarked) [Compound 264], the IC50 was 1.58 nM.

For the compound `CN(Cc1ccccc1)c1nc(-c2ccnc(F)c2)[nH]c(=O)c1Cl` [Compound 289], the IC50 was 95.5 nM.

For `O=c1[nH]c(-c2ccnc(F)c2)nc(N2CCOC3(CCNCC3)C2)c1Cl` [Compound 227], the IC50 was 2.24 nM.

For the compound `CN(C)C(=O)N1CCN(c2nc(-c3ccnc(F)c3)[nH]c(=O)c2Cl)CC1` [Compound 240], the IC50 is 3.72 nM.

For `O=c1[nH]c(-c2ccnc(F)c2)nc(N2CC3(CNC3)C2)c1Cl` [Compound 198], the IC50 is 66.1 nM.

Take `CC(C)[C@@H]1CN(c2nc(-c3ccnc(F)c3)[nH]c(=O)c2Cl)CCN1` [Compound 327]: the IC50 is 6.61 nM.

With `NC1CN(c2nc(-c3ccnc(F)c3)[nH]c(=O)c2Cl)C1` [Compound 325], the IC50 was 11.2 nM.

For `O=c1[nH]c(-c2ccnc(F)c2)nc(SC2CCNCC2)c1Cl` [Compound 193], the IC50 was 2.88 nM.

Consider `C[C@@H]1COC[C@@H](C)N1c1nc(-c2ccnc(F)c2)[nH]c(=O)c1Cl` [Compound 341], for which the IC50 was 6.61 nM.

As for `CC[C@H]1COCCN1c1nc(-c2ccnc(F)c2)[nH]c(=O)c1Cl` [Compound 336], the IC50 is 1.82 nM.

Regarding `O=c1[nH]c(-c2ccnc(F)c2)nc(N2CCC3CNCCC32)c1Cl` (centres unmarked) [Compound 225], the IC50 is 2.09 nM.

Turning to `O=c1[nH]c(-c2ccnc(F)c2)nc(N2CCO[C@H]3CCCC[C@@H]32)c1Cl` [Compound 332], the IC50 was 6.31 nM.

Consider `O=c1[nH]c(-c2ccnc(F)c2)nc(N2CCCC3(CCCN3)C2)c1Cl` (centres unmarked) [Compound 250], for which the IC50 was 9.77 nM.

In the case of `CC(C)C(=O)NC1CCN(c2nc(-c3ccnc(F)c3)[nH]c(=O)c2Cl)CC1` [Compound 254], the IC50 was 2.4 nM.

Turning to `O=C1CCN(c2nc(-c3ccnc(F)c3)[nH]c(=O)c2Cl)CCN1` [Compound 288], the IC50 was 0.933 nM.

Consider `NC(=O)CN1CCN(c2nc(-c3ccnc(F)c3)[nH]c(=O)c2Cl)CC(F)(F)C1` [Compound 414, 2-[4-[5-chloro-2-(2-fluoro-4-pyridyl)-6-oxo-1H-pyrimidin-4-yl]-6,6-difluoro-1,4-diazepan-1-yl]acetamide], for which the IC50 is 0.891 nM.

With `O=c1[nH]c(-c2ccnc(F)c2)nc(NCC2COCCN2)c1Cl` (centres unmarked) [Compound 224], the IC50 was 724 nM.

With `O=c1[nH]c(-c2ccnc(F)c2)nc(N2CC3CNCC3C2)c1Cl` (centres unmarked) [Compound 226], the IC50 was 3.02 nM.

Consider `CC(=O)N[C@H]1CCN(c2nc(-c3ccnc(F)c3)[nH]c(=O)c2Cl)C1` [Compound 274], for which the IC50 is 5.01 nM.

Consider `O=c1[nH]c(-c2ccnc(F)c2)nc(NC2CCNCC2)c1Cl` [Compound 222], for which the IC50 is 13.5 nM.

In the case of `O=c1[nH]c(-c2ccnc(F)c2)nc(N2CCCC23CCNCC3)c1Cl` [Compound 263], the IC50 was 11 nM.

For the compound `O=c1[nH]c(-c2ccnc(F)c2)nc(N2CCCC2)c1Cl` [Compound 276], the IC50 is 6.31 nM.

In the case of `N[C@H]1CC[C@@H](Oc2nc(-c3ccnc(F)c3)[nH]c(=O)c2Cl)C1` [Compound 195], the IC50 was 1.32 nM.

As to `O=c1[nH]c(-c2ccnc(F)c2)nc(O[C@H]2CCCNC2)c1Cl` [Compound 331], the IC50 was 9.55 nM.

For `O=c1[nH]c(-c2ccnc(F)c2)nc(N2CCn3cncc3C2)c1Cl` [Compound 346], the IC50 was 1.05 nM.

Turning to `O=c1[nH]c(-c2ccnc(F)c2)nc(N2CCC3(CCCO3)CC2)c1Cl` [Compound 238], the IC50 is 5.25 nM.

For `O=c1[nH]c(-c2ccnc(F)c2)nc(N2CCN[C@H](C3(O)CC3)C2)c1Cl` [Compound 311], the IC50 is 2.09 nM.

`O=c1[nH]c(-c2ccnc(F)c2)nc(N2CCCN(CC(F)(F)F)CC2)c1Cl` [Compound 299]: the IC50 is 6.46 nM.

`C[C@H]1CCCN1c1nc(-c2ccnc(F)c2)[nH]c(=O)c1Cl` [Compound 278]: the IC50 was 14.8 nM.

With `N#C[C@H]1CNCCN1c1nc(-c2ccnc(F)c2)[nH]c(=O)c1Cl` [Compound 344], the IC50 is 2.75 nM.

`O=c1[nH]c(-c2ccnc(F)c2)nc(N2CCC3(CCCCN3)C2)c1Cl` (centres unmarked) [Compound 213]: the IC50 was 53.7 nM.

As for `CN(c1nc(-c2ccnc(F)c2)[nH]c(=O)c1Cl)[C@@H]1CCCNC1` [Compound 268], the IC50 was 4.27 nM.

In the case of `O=C(NCCO)C1CCN(c2nc(-c3ccnc(F)c3)[nH]c(=O)c2Cl)CC1` [Compound 256], the IC50 is 2 nM.

Regarding `O=c1[nH]c(-c2ccnc(F)c2)nc(OC2COC2)c1Cl` [Compound 199], the IC50 was 389 nM.

Turning to `NC(=O)[C@H]1CCN(c2nc(-c3ccnc(F)c3)[nH]c(=O)c2Cl)C1` [Compound 251], the IC50 was 4.07 nM.

Take `CC(C)NC(=O)C1CCN(c2nc(-c3ccnc(F)c3)[nH]c(=O)c2Cl)CC1` [Compound 255]: the IC50 was 7.08 nM.

As to `CC(C)(O)[C@H]1CN(c2nc(-c3ccnc(F)c3)[nH]c(=O)c2Cl)CCN1` [Compound 187], the IC50 was 1.86 nM.

`O=c1[nH]c(-c2ccnc(F)c2)nc(CN2CCOCC2)c1Cl` [Compound 397, 5-chloro-2-(2-fluoro-4-pyridyl)-4-(morpholinomethyl)-1H-pyrimidin-6-one]: the IC50 is 219 nM.

In the case of `O=c1[nH]c(-c2ccnc(F)c2)nc(N2CCn3cnnc3C2)c1Cl` [Compound 269], the IC50 was 0.525 nM.

In the case of `CC(C)C[C@H]1CN2CCC[C@H]2CN1c1nc(-c2ccnc(F)c2)[nH]c(=O)c1Cl` [Compound 349], the IC50 is 83.2 nM.

As to `O=c1[nH]c(-c2ccnc(F)c2)nc(N2C[C@H](O)C[C@H](O)C2)c1Cl` [Compound 189], the IC50 is 1.62 nM.

Turning to `O=c1[nH]c(-c2ccnc(F)c2)nc(N2CC[C@H](O)C2)c1Cl` [Compound 215], the IC50 is 14.1 nM.

Consider `O=c1[nH]c(-c2ccnc(F)c2)nc(N2CCC3(CCCNC3)C2)c1Cl` (centres unmarked) [Compound 220], for which the IC50 is 15.5 nM.

Turning to `CN(c1nc(-c2ccnc(F)c2)[nH]c(=O)c1Cl)C1CCNCC1(C)C` (centres unmarked) [Compound 210], the IC50 was 4.37 nM.

Another experiment has as its target Cdc7/ASK (Homo sapiens, UniProt O00311). Put plainly: Cdc7 Biochemical Assay Method 1: 384 well ELISA, whole protein substrate MCM2, antibody against Phospho MCM2 (S53). Set-up: purchased. As to conditions: 2 μM ATP, read-out: Biochemical Method 1 (pIC50) (converted). The procedure, abridged:
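MCM2 protein substrate was coated on nickel-chelate plates, then Cdc7/ASK was added with 2 μM ATP in 50 mM Tris-HCl pH 8.5, 10 mM MgCl2, 1 mM DTT, 4% DMSO, 90 min at room temperature. Phospho-MCM2 (S53) was detected by ELISA with an AP secondary and PNPP absorbance. IC50 was derived from % inhibition versus no-compound and no-enzyme controls.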
(In general: An ELISA detects its analyte on a solid surface through an enzyme-linked reagent.)
Regarding `O=c1[nH]c(-c2ccnc(F)c2)nc(C2CCOCC2)c1Cl` [Compound 13, 5-chloro-2-(2-fluoro-pyridin-4-yl)-6-(tetrahydro-pyran-4-yl)-3H-pyrimidin-4-one], the IC50 is 1.23 nM.
